Experimental findings from ChEMBL document CHEMBL1201862, “PubChem BioAssay data set” (2004) are described below.

One assay addresses Nonstructural protein 1 (Influenza A virus, UniProt Q194T2). The assay is classed as functional, Influenza A virus (A/California/07/2009(H1N1)).
The target in assay [1] is T1, Carboxy-terminal domain RNA polymerase II polypeptide A small phosphatase 1 (Homo sapiens, UniProt Q9GZU7).
T1 sequence (Q9GZU7 whole entry): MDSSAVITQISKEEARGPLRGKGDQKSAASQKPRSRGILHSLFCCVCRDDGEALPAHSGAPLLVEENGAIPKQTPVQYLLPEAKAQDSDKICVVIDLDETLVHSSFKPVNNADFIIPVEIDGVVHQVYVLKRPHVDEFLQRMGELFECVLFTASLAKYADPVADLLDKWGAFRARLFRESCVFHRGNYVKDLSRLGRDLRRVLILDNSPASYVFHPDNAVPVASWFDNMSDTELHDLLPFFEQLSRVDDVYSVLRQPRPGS
As to the kind of experiment: CTDSP1 inhibitors, concentration-response, biochemical, absorbance readout, ultra-high-throughput screen actives (AID 540297). Format: functional.

The target of assay [2] is FAD-linked sulfhydryl oxidase ALR (Homo sapiens, UniProt P55789). As to the kind of experiment: ALR-catalysed DTT oxidation blockers – biochemical, H2O2 detection, luminescence, cherry-pick, dose response (AID 493248).
FAD-linked sulfhydryl oxidase ALR, sequence (P55789 whole entry): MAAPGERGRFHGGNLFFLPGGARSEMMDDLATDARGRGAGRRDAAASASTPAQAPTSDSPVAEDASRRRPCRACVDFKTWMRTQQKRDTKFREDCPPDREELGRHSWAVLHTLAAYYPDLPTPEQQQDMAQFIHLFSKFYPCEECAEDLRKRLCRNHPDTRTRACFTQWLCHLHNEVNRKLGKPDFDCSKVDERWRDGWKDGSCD
In assay [3] the target is T2, Rac GTPase-activating protein 1 (Homo sapiens, UniProt Q9H0H5).
T2 sequence (Q9H0H5 whole entry): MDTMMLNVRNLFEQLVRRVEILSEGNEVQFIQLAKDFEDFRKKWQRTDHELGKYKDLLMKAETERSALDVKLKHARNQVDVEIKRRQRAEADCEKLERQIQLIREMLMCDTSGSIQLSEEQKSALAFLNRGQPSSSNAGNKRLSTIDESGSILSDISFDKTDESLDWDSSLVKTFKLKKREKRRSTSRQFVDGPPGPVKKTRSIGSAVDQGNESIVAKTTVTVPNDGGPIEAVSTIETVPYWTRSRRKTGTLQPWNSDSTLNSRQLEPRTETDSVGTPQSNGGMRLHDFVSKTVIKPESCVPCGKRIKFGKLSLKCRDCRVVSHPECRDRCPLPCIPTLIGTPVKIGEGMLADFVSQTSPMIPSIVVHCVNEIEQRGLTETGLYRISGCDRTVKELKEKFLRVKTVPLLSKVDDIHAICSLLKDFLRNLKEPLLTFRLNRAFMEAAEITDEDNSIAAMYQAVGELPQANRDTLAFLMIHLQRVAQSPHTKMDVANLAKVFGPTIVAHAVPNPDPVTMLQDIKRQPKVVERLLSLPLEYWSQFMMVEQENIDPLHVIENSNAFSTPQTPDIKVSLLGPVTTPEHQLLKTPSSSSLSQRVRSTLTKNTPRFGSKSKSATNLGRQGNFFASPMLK
As to the kind of experiment: blockers of MgcRacGAP-driven Rac1 GTP hydrolysis – biochemical, ADP Hunter fluorescence, primary and confirmatory, confirmation (AID 624330). The assay is classed as functional.

For assay [4], the target named is T3, Zinc finger protein mex-5 (Caenorhabditis elegans, UniProt Q9XUB2).
T3 sequence (Q9XUB2 whole entry): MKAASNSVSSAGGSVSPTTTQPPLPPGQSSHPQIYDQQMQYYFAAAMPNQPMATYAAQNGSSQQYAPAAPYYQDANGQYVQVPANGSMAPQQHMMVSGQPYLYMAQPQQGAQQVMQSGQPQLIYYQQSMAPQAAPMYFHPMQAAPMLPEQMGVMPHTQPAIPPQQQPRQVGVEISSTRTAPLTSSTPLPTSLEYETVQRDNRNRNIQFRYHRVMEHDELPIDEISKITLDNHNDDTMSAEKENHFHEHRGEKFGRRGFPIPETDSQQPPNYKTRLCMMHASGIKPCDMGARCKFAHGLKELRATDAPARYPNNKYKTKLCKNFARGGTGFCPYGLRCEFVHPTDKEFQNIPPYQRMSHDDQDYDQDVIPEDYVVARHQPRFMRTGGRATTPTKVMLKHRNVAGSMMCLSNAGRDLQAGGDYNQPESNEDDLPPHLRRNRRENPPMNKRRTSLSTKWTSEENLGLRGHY
As to the kind of experiment: potency of MEX-5 RNA-binding blockers – biochemical, C. elegans, fluorescence polarization, dose response (AID 1960).

For assay [5], the target named is T4, RNA-binding protein pos-1 (Caenorhabditis elegans, UniProt G5EF15).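 Also: purified POS-1 fused to maltose binding protein made in E. coli; potency of compounds blocking POS-1 binding to fluorescent RNA.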
T4 sequence (G5EF15 whole entry): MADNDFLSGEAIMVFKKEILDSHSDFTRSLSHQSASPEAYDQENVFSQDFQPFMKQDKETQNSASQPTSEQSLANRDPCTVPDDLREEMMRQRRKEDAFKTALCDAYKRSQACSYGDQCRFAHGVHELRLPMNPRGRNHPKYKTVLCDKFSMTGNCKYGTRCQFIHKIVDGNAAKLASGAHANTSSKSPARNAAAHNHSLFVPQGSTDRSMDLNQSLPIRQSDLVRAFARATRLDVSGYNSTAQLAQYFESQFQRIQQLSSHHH
As to the kind of experiment: disruptors of C. elegans POS-1 RNA interaction – biochemical, fluorescence polarization, dose response (AID 1964). (Polarisation of emitted light reports the rotation of a fluorescent probe.)

Assay [6] addresses T5, Polyadenylate-binding protein 1 (Homo sapiens, UniProt P11940). The assay is described as follows: MLLE binding blockers, Cy5 peptide tracer – biochemical, fluorescence polarization, Cy5-PAM2 peptide, secondary, miRNA deadenylation inhibitor project, dose response (AID 602260). The assay is classed as functional. The conditions noted are these: read-out: IC50_Mean.
Assay [7] has as its target T5, Polyadenylate-binding protein 1. The assay is described as follows: MLLE domain peptide-binding blockers, IC50 – biochemical, fluorescence polarization, FITC-PAM2 peptide, dose response (AID 602259). Format: functional. The conditions noted are these: read-out: IC50_Mean.
The nature of assay [8]: Luminescence Cell-Based Dose Retest to Confirm Inhibitors of Cancer Stem Cells. [Related pubchem assays (depositor defined):AID2717, AID2721]. Format: functional. The conditions noted are these: Homo sapiens.
A short description of assay [9]: luciferase reporter signal suppression in cells – H4 neuroglioma cells, luminescence, dose response (AID 1990). Format: functional, cell-based. (In a reporter assay the amount or activity of a reporter protein is the signal.)
The next assay relates to INS1. As to the kind of experiment: INS-1E survival protection against cytokine death – cell-based, luminescence, retest, dose response (AID 449756).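 Also: cell death triggered by IL-1 beta plus TNF-alpha plus IFN-gamma mixture; protective hits raise ATP signal compared with cytokine alone wells.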 The assay is classed as functional. The conditions noted are these: Rattus norvegicus.
Assay [10] in a line: alpha-synuclein stem-loop luciferase translation blockers – H4 neuroglioma cells, luminescence, confirmation (AID 1988). The assay is classed as functional, cell-based.
Assay [11] in a line: Luminescence Cell-Based Dose Response HTS to Identify Inhibitors of 5'UTR Stem-Loop Driven Prion Protein mRNA Translation in H4 Neuroglioblastoma Cells. [Related pubchem assays: 1827 (Project Summary), 1813 (Primary HTS)]. The assay is classed as functional.
Assay [12] can be described thus: NIH3T3 cell viability loss – ATP luminescence, mouse fibroblasts, counter-screen, dose response (AID 2010).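 Also: cells exposed to compound for about 90 hours before reading.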 The assay is classed as functional, cell-based. (In general: The purpose of a counterscreen is to sort out artefacts and off-target activity.)
The nature of assay [13]: Trypanosoma cruzi growth suppression in host cells – NIH3T3 host cells, beta-gal luminescence, confirmation (AID 2044).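 Also: intracellular parasites grown in NIH/3T3 mouse fibroblasts as host cells; luminescent beta-galactosidase reporter signal from transgenic T. cruzi replicating inside host cells; inhibitors lower the luminescence signal.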 Format: functional, cell-based.

The source made the active and inactive calls.

T5 sequence (P11940 whole entry, the tested form may be a part): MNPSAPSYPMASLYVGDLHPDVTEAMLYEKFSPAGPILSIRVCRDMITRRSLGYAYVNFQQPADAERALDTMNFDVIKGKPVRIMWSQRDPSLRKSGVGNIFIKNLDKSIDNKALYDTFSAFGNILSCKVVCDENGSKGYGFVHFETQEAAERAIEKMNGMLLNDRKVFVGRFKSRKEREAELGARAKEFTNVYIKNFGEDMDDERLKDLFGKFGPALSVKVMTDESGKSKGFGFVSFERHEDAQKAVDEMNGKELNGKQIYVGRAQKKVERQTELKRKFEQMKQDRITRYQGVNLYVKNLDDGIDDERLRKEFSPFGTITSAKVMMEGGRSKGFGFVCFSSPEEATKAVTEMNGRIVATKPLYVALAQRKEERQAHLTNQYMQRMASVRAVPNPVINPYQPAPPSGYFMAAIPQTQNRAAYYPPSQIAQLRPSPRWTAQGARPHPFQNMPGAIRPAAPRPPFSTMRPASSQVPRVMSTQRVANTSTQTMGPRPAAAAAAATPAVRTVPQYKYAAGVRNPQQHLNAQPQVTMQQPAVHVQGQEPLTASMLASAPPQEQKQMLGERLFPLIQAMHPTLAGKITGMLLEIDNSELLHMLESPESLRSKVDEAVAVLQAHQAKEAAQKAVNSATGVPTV
Nonstructural protein 1, sequence (Q194T2 whole entry, the tested form may be a part): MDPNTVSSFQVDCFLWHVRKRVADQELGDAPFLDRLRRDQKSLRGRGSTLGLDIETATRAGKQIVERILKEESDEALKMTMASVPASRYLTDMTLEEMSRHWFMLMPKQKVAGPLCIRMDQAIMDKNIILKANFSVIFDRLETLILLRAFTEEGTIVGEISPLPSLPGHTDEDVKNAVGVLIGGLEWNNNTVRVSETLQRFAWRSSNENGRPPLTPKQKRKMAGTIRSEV

Regarding `Cc1cc(C(=O)N/N=C/c2cccc([N+](=O)[O-])c2O)[nH]n1`, the IC50 at Nonstructural protein 1 was 7.33 µM (active). As to `O=C(CN1C(=O)N/C(=C\c2ccccc2OCc2ccc(C(=O)O)cc2)C1=O)Nc1ccc(F)cc1`, the IC50 in assay [1] is 9.09 µM (active). One may read the AC50 as the midpoint of the concentration-response curve, whichever way the signal moves. Regarding `Cc1ccc2[nH]c(C(=O)O)c(-c3ccccc3)c2c1`, the concentration at half-maximal activity (AC50) in assay [2] was 4.49 µM (active).

As for `O=C(Nc1ccc(Nc2ccccc2)cc1)C1CC1`, in assay [3], the IC50 is 50.8 µM (active). The half-maximal activity concentration (AC50) in [2] was 0.875 µM (active). As a reminder, the EC50 is the concentration giving half of the maximal effect. Regarding `Cc1ccc(C)n1-c1ccc2c(c1)COC2=O`, the EC50 in assay [4] and in [5] was > 300 µM (not active) throughout.

Regarding `c1ccc(-c2cn(C[C@H]3CC[C@H](Cn4cc(-c5ccccn5)nn4)O3)nn2)nc1`, the IC50 on Nonstructural protein 1 was 3.19 µM (active).

On to `COc1ccc(OC)c(C(=O)c2coc3ccc(O)c(CN4CCOCC4)c23)c1`, for which the EC50 in assay [4] and in [5] was > 300 µM (not active) each time. Turning to `CCCCC1=CC2=CC(=O)C(C)(OC(=O)c3ccc(Cl)nc3)C(=O)C2=CO1` (stereo not drawn), the EC50 is 21.6 µM (active) in [4] and 21.7 µM (active) in assay [5]. For `COc1ccccc1C(=O)C1CCCN(C(=O)c2cccnc2SC)C1` (stereo not drawn) the same measures were > 300 µM (not active) and > 300 µM (not active). As for `Cn1c(=O)c(-c2cc(O)[nH]n2)c(O)c2ccccc21`, the EC50 in [4] is 23.3 µM (active); in assay [5], > 300 µM (not active). For the compound `CCCC(=O)NC(=S)Nc1cccc(Cl)c1N1CCCC1`, the IC50 in [6] and in assay [7] was > 66 µM (inactive) throughout. In [8], the half-maximal activity concentration (AC50) was 4.17 µM (active).

As for `CC(C)c1nnc(NC(=O)CS(=O)(=O)Cc2ccccc2)s1`, the IC50 in [6] and in assay [7] was > 66 µM (inactive) in each case. On to `CC(C)[N+](C)(CCC(C(N)=O)(c1ccccc1)c1ccccc1)C(C)C` [ISOPROPAMIDE IODIDE], for which the IC50 in assay [1] was 3.27 µM (active). `CCCCCCN1C(=O)NC(=O)/C(=C\NCCCn2ccnc2)C1=O`: the EC50 in [4] is > 300 µM (inconclusive); in assay [5], > 300 µM (not active).

As to `CCCCN=C(S)Nc1ccc(OC)nc1`, the IC50 was > 66 µM (inactive) in assay [6] and 43.7 µM (inactive) in [7].

As to `COc1ccc(N2CCN(C(=O)CCNS(=O)(=O)c3ccccc3)CC2)cc1`, in [2], the AC50 was 8.08 µM (active). Turning to `O=C(COC(=O)c1cc(-c2cccs2)nc2ccccc12)NCc1ccco1`, the IC50 in [1] was 9.73 µM (active). Regarding `NNc1nc2ccc(F)cc2s1`, the AC50 in [2] was 4.94 µM (active). For `COC(=O)c1c(NC(=O)C2C3CCC(C3)C2C(=O)O)sc2c1CCCCC2` (stereo not drawn), the IC50 in assay [6] and in assay [7] was > 66 µM (inactive) throughout. Take `O=C(COc1ccc(-n2cnnn2)cc1)Nc1ccccc1Cl`: the IC50 in assay [1] is 11.4 µM (active). With `COc1ccc(NS(=O)(=O)c2ccc(NC(=S)NC(=O)c3cccc(F)c3)cc2)nn1`, the IC50 in assay [6] and in assay [7] was > 66 µM (inactive) throughout.

Regarding `Nc1nn(-c2ccccc2)c(N)c1N=Nc1ccccc1F`, the IC50 at Nonstructural protein 1 is > 100 µM (active).

For the compound `COc1ccc(C(=O)NCC(c2cccnc2)N2CCN(c3ccc(F)cc3)CC2)cc1OC` (stereo not drawn), in [2], the concentration at half-maximal activity (AC50) is < 0.005 µM (active).

For `CCOC(=O)c1nc(Nc2ccc(N3CCC(C)CC3)cc2)c2ccccc2n1`, the IC50 at Nonstructural protein 1 was 26.9 µM (active).

Turning to `CCc1c(O)n(-c2ccccc2C)c(SCC(=O)Nc2ccccc2OC)nc1=O`, the IC50 in assay [6] and in assay [7] was > 66 µM (inactive) in each case.

`O=C(CN1CCN(c2ccc(Cl)cc2)CC1)N1CCCC1`: the AC50 in assay [2] was 0.657 µM (active). With `O=C1NC(c2ccccn2)Nc2sc3c(c21)CCC3` (stereo not drawn), the IC50 on Nonstructural protein 1 is 54.2 µM (active).

`O=C(CSc1nnc(CNC(=O)c2c(F)cccc2F)o1)NCc1ccco1`: in assay [1], the IC50 was 14 µM (active). For the compound `CN1C(=O)C(=Cc2ccc(Sc3ccccc3)o2)C(=O)N(C)C1=S`, the concentration giving a half-maximal response (EC50) in assay [4] and in [5] was > 300 µM (not active) each time. Consider `Cc1nc(C(F)(F)F)c(C(=O)NN=C(N)c2ccccn2)s1`, for which the EC50 in assay [9] was 11.5 µM (active); in [10], > 120 µM (not active); in assay [11] it was > 120 µM (not active). In addition, the half-maximal activity concentration (AC50) with INS1 was 5.45 µM (active). Moreover, the IC50 at Nonstructural protein 1 is 8.03 µM (active). In the case of `Cn1c(=O)[nH]c(=O)c2c1nc(Br)n2CCCSc1nc2ccccc2o1`, in assay [2], the AC50 is < 0.005 µM (active). The EC50 in [12] is 15.8 µM (active); in assay [13] it was 1.32 µM (active).

For the compound `O=C(O)C1CCCN1c1nc(Cl)ccc1[N+](=O)[O-]` (stereo not drawn), the IC50 in assay [6] and in assay [7] was > 66 µM (inactive) throughout. Regarding `Cc1onc(-c2ccccc2Cl)c1C(=O)NCCn1c(C)cc2ccccc21`, on Nonstructural protein 1, the IC50 is > 100 µM (active). As to `Cc1cc(NC(=O)CSC2=NCCS2)no1`, the IC50 in assay [6] and in assay [7] was > 66 µM (inactive) in each case.

For the compound `CN(CC(=O)Nc1cccc2ccccc12)C(=O)c1ccc(NC(=O)CC#N)cc1`, the AC50 in assay [2] is 6.29 µM (active).
